Assay results reported in patent US6683052B1, “Lipopeptides containing an interferon-γ fragment, and uses thereof in pharmaceutical compositions” (Institut National de la Sante et de la Recherche Medicale …, priority 1998, dated 2004).
Where a SMILES comes first, the peptide text is derived from it. The star is where a group is joined. Palmitoyl = CCCCCCCCCCCCCCCC(=O)*

Tests used:
[1] = tested on: P388D1; test: Induction of class II CMH molecules on P388D1 cell line, flow cytometry; assay type: cell-based, murine; settings: for percentage of class II CMH detected by flow cytometry, P388D1: 50 μM, stimulated for 24 hours
Method: (§1) Principle: to check the induction of class II CMH molecules on cell lines (P388D1 and WEHI3: murine myelomonocytes) with the above-mentioned peptides.
(§2) Procedure. The cells are cultured the day before at a rate of 3×10^5 cells per well in 24-well culture plates (NUNC). The following day, the cells are stimulated with the various lipopeptide and peptide constructs at a final concentration of 50 μM in 1 ml of medium. After incubation for 24 hours at 37° C. in an atmosphere saturated with 5% CO2, the cells are recovered and incubated for 1 hour at 4° C. with 3 μg of a biotinylated mouse anti-I-Ad monoclonal antibody (Pharmingen, San Diego, USA). After revelation for 30 minutes with FITC streptavidin used at a dilution of 1:100 (Sigma, St. Louis, USA), the expression of class II molecules is determined by flow cytometry.

[2] = tested on: murine splenocytes; test: Induction of class II CMH molecules (IA^b) on murine splenocytes by lipopeptide fragments (FIG. 12A); assay type: cell-based, 129 Sv mice; settings: for increase in class II CMH molecules (FIG. 12A): murine splenocytes, 24 hours, different concentrations
Method: (§3) Fresh splenocytes are obtained from 7-week-old female 129 Sv mice. The COLO 205 human colon carcinoma lines are obtained from the ATCC (American Type Culture Collection). The splenocytes and COLO 205 cells are maintained in RPMI 1640 (Gibco BRL, Courbevoie, France), supplemented with 10% FCS (Gibco BRL), sodium pyruvate (Sigma, St. Louis, USA) and incubated at 37° C. in 5% CO2.
(§4) The cells were stimulated for 24 hours with different concentrations of MuL, L-mIFNγ 113-132, L-mIFNγ 122-132 or MuSL. The murine splenocytes and COLO 205 cells were labelled for the expression of II MHC with 1 μg of anti-mouse IA^b FITC monoclonal antibody (mAb) (Pharmingen, San Diego, USA) and 10 μl of anti-HLA-DR clone TAL.1B5 mouse FITC mAb (Cymbus Biotechnology Ltd, Hants, UK), respectively. A negative control mouse FITC IgG1 (DAKO S. A., Trappes, France) was used as control isotype. The cells were incubated for 1 hour at 4° C. in PBS, 10% FCS and then washed, and the expression of II MHC was analysed by flow cytometry using a Coulter EPILS II cytometer (Coulter, Hialeah, Fla., USA) at a rate of 10,000 events per sample.
(§5) FIG. 12: Induction of class II CMH molecules by human or murine cells stimulated with lipopeptides derived from IFN-γ. The murine splenocytes (A) and the COLO 205 human cell line (B) were incubated for 24 hours with different concentrations of lipopeptides derived from IFN-γ. The cells were labelled with a monoclonal antibody directed against the class II CMH molecules, and analysed by flow cytometry. The ratio between the average fluorescence intensity of the cells treated with the lipopeptides and between the average fluorescence intensity of the untreated cells is indicated on the y-axis. The lipopeptide concentration is indicated in μM on the x-axis; MuL: solid circles; MuSL : hollow circles; L-mIFN 113-132: triangles; L-mIFN 122-132: X.

[3] = tested on: COLO 205 human cell line; test: Induction of HLA-DR on COLO 205 cells by lipopeptide fragments (FIG. 12B); assay type: cell-based; settings: for increase in class II CMH molecules (FIG. 12B): COLO 205, 24 hours, different concentrations
Method: as §3, §4, §5

[4] = tested on: murine splenocytes and COLO 205 cells; test: Cytotoxicity at high lipopeptide concentrations; assay type: cell-based
[5] = tested on: WEHI3; test: Induction of class II CMH molecules on WEHI3 cell line, flow cytometry; assay type: cell-based, murine; settings: 50 μM, stimulated for 24 hours
Method: as §1, §2

[6] = tested on: splenocytes; test: Expression of class II CMH molecules and Fc-γ receptors on splenocytes taken from an animal; assay type: cell-based, Balb/c mouse; settings: 50 μM, 24 hours, flow cytometry
Method: (§6) Principle: to evaluate the activity of the vectorized agonist on cells taken from an animal and treated in vitro (in order to assess the value of a subsequent in vivo study).
(§7) Procedure. The splenocytes and peritoneal cells taken from an animal (Balb/c mouse) are re-cultured at a rate of 2.5×10^6 splenocytes and […] peritoneal cells per well in 24-well plates (NUNC) stimulated with 50 μM of the different peptides in a final volume of 1 ml. After stimulation for 24 hours, the cells are labelled with the anti IA^d monoclonal antibody described in the preceding paragraph, according to the same protocol. To detect the Fc-γ R, the cells are labelled with 1 μg of a rat anti Fc-γ R monoclonal antibody (Pharmingen, San Diego, USA). Next, the cells are incubated for ½ hour with a rat anti IgG biotinylated polyclonal antibody. The revelation is then carried out with FITC streptavidin used at a dilution of 1:100 (Sigma, St. Louis, USA). The expression of Fc-γ R is determined by flow cytometry.

[7] = tested on: peritoneal cells; test: Expression of class II CMH molecules and Fc-γ receptors on peritoneal cells taken from an animal; assay type: cell-based, Balb/c mouse; settings: 50 μM, 24 hours, flow cytometry
Method: as §6, §7

[8] = tested on: splenocytes taken from mice 129 (Wild type: WT); test: Involvement of the IFN-γ receptor: IA^d and Fc-γ R on splenocytes of wild type mice 129; assay type: cell-based; settings: stimulation for 24 hours, flow cytometry
Method: as §7
(§8) Principle. to confirm that the biological activity observed was effectively associated with a stimulation of the IFN-γ receptor, we repeated the same experiments, in parallel on splenocytes taken from mice 129 (Wild type: WT) and on cells taken from mice 129 no longer expressing the alpha chain of the IFN-γ receptor (KO mice).
(§9) Procedure. The experimental protocol followed is identical to that described in paragraph 2 above.

[9] = tested on: cells taken from mice 129 no longer expressing the alpha chain of the IFN-γ receptor (KO mice); test: Involvement of the IFN-γ receptor: IA^d and Fc-γ R on cells of mice lacking the alpha chain of the IFN-γ receptor; assay type: cell-based; settings: stimulation for 24 hours, flow cytometry
Method: as §7, §8, §9

[10] = tested on: human colon carcinoma cells (COLO 205); test: Induction of HLA-DR on COLO 205 cell line, flow cytometry; assay type: cell-based; settings: COLO 205, 50 μM
Method: Principle: human colon carcinoma cells (COLO 205) are analysed for their ability to express HLA-DR after having been stimulated with the various peptide constructs.
Procedure. The cell line COLO 205 is cultured at a rate of 3×10^5 cells per well in a 24-well culture plate (NUNC). The following day, the cells are stimulated with the various peptide constructs at a final concentration of 50 μM in 1 ml of medium, and are incubated at 37° C. for 24 hours. The cells are then recovered and labelled using 3 μg of an anti HLA-DR mouse biotinylated monoclonal antibody (clone L243). After revelation with FITC streptavidin, the cells are analysed by flow cytometry.

[11] = Circular dichroism studies; assay type: physicochemical; settings: 2 mM pH 7 phosphate buffer
Method: The circular dichroism measurements on the peptides were carried out at 25° C. using a Jobin-Yvon CD-6 machine at controlled temperature. The scans were carried out with a cell 0.1 cm in length in an average time of 5 sec. The wavelength interval measured ranges from 185 to 260 nm at a scanning step speed of 0.5 nm/step. The scans were carried out on the peptides at neutral pH in a 2 mM phosphate buffer with or without the helix-stabilizing reagent trifluoroethanol (TFE). The peptide concentration was adjusted to a concentration of 20 μM, after determination of the exact amount of a 100 μM solution by quantitative amino acid analysis. The average values of 4 repeat scans were expressed as average molar ellipticity per residue (deg. cm^2 dmol.).

Row | Compound | increase in class II CMH molecules (FIG. 12A) [2] | increase in class II CMH molecules (FIG. 12B) [3] | cytotoxicity [4] | percentage of class II CMH detected by flow cytometry, P388D1 [1] [%] | percentage of class II CMH detected by flow cytometry, WEH1 [5] [%] | splenocytes II CMH (%) [6] [%] | splenocytes RFc (%) [6] [%] | peritoneal cells II CMH (%) [7] [%] | peritoneal cells RFc (%) [7] [%] | WT mice II CMH (%) [8] [%] | WT mice RFc (%) [8] [%] | KO mice II CMR (%) [9] [%] | KO mice RFc (%) [9] [%] | helical (ordered) conformation by CD ([11]; 25% trifluoroethanol) | also measured
1 | recombinant IFN-γ: recombinant interferon-gamma cytokine used as reference | – | – | – | – | – | – | – | – | – | – | – | – | – | – | stimulation time at which induction of class II CMH molecules is at a maximum ([1]; cell lines of Table 8): 48 h
2 | L-mIFN-γ 113-132: fragment 113-132 of murine IFNγ, carboxamide end, N-terminal Ac-K(Pam) group (Ac-K(Palmitoyl)IRVVHQLLPESSLRKRKRSR-NH2; SMILES CCCCCCCCCCCCCCCC(=O)NCCCC[C@H](NC(C)=O)C(=O)N[C@H](C(=O)N[C@@H](CCCNC(=N)N)C(=O)N[C@H](C(=O)N[C@H](C(=O)N[C@@H](Cc1c[nH]cn1)C(=O)N[C@@H](CCC(N)=O)C(=O)N[C@@H](CC(C)C)C(=O)N[C@@H](CC(C)C)C(=O)N1CCC[C@H]1C(=O)N[C@@H](CCC(=O)O)C(=O)N[C@@H](CO)C(=O)N[C@@H](CO)C(=O)N[C@@H](CC(C)C)C(=O)N[C@@H](CCCNC(=N)N)C(=O)N[C@@H](CCCCN)C(=O)N[C@@H](CCCNC(=N)N)C(=O)N[C@@H](CCCCN)C(=O)N[C@@H](CCCNC(=N)N)C(=O)N[C@@H](CO)C(=O)N[C@@H](CCCNC(=N)N)C(N)=O)C(C)C)C(C)C)[C@@H](C)CC) | marked dose-dependent increase | marked dose-dependent increase | not cytotoxic | – | – | – | – | – | – | – | – | – | – | – | increase in the expression of class II CMH molecules ([2]; 50 μM, splenocytes freshly obtained from mice): 13 fold; factor of increase of the expression of IA^b ([2]; 100 μM (280 μg/ml), murine cells): 18; increase in the expression of HLA-DR ([3]; 50 μM, human cells): 10 fold; increase in the expression of HLA-DR ([3]; 75 μM (210 μg/ml), human cell lines): 15 fold
3 | MuS: non-lipid scrambled analogue of the Mu peptide (PSRENQNAVKIQKLSVVLRREQKHRVERLAFRNQSLPF) | – | – | – | 14 | 5 | 9 | 8 | 6 | 8 | 3 | 1 | 3 | 1 | – | –
4 | CCCCCCCCCCCCCCCC(=O)NCCCC[C@H](NC(C)=O)C(=O)N[C@@H](C)C(=O)N[C@@H](CCCCN)C(=O)N[C@@H](Cc1ccccc1)C(=O)N[C@@H](CCC(=O)O)C(=O)N[C@H](C(=O)N[C@@H](CC(N)=O)C(=O)N[C@@H](CC(N)=O)C(=O)N1CCC[C@H]1C(=O)N[C@@H](CCC(N)=O)C(=O)N[C@H](C(=O)N[C@@H](CCC(N)=O)C(=O)N[C@@H](CCCNC(=N)N)C(=O)N[C@@H](CCC(N)=O)C(=O)N[C@@H](C)C(=O)N[C@@H](Cc1ccccc1)C(=O)N[C@@H](CC(N)=O)C(=O)N[C@@H](CCC(=O)O)C(=O)N[C@@H](CC(C)C)C(=O)N[C@H](C(=O)N[C@@H](CCCNC(=N)N)C(=O)N[C@H](C(=O)N[C@H](C(=O)N[C@@H](Cc1c[nH]cn1)C(=O)N[C@@H](CCC(N)=O)C(=O)N[C@@H](CC(C)C)C(=O)N[C@@H](CC(C)C)C(=O)N1CCC[C@H]1C(=O)N[C@@H](CCC(=O)O)C(=O)N[C@@H](CO)C(=O)N[C@@H](CO)C(=O)N[C@@H](CC(C)C)C(=O)N[C@@H](CCCNC(=N)N)C(=O)N[C@@H](CCCCN)C(=O)N[C@@H](CCCNC(=N)N)C(=O)N[C@@H](CCCCN)C(=O)N[C@@H](CCCNC(=N)N)C(=O)N[C@@H](CO)C(=O)N[C@@H](CCCNC(=N)N)C(N)=O)C(C)C)C(C)C)[C@@H](C)CC)C(C)C)C(C)C [MuL] (Ac-K(Palmitoyl)AKFEVNNPQVQRQAFNELIRVVHQLLPESSLRKRKRSR-NH2) | – | – | cytotoxic | – | – | – | – | – | – | – | – | – | – | – | –
5 | Mu: non-lipid peptide: sequence delimited by the amino acids in positions 95 and 132 of the murine IFN-γ peptide sequence (AKFEVNNPQVQRQAFNELIRVVHQLLPESSLRKRKRSR; listed as Mus sp.) | inactive | inactive | – | 5 | 8 | 12 | 7 | 13 | 8 | 12 | 1 | 3 | 1 | 53% | induction of the expression of HLA-DR [10]: no activity; % HLA-DR ([10]; 24 hours, flow cytometry): 1.2%; helical (ordered) conformation by CD ([11]; 50% trifluoroethanol): 65%
6 | L-mIFN-γ 122-132: fragment 122-132 of murine IFNγ, carboxamide end, N-terminal Ac-K(Pam) group (Ac-K(Palmitoyl)ESSLRKRKRSR-NH2; SMILES CCCCCCCCCCCCCCCC(=O)NCCCC[C@H](NC(C)=O)C(=O)N[C@@H](CCC(=O)O)C(=O)N[C@@H](CO)C(=O)N[C@@H](CO)C(=O)N[C@@H](CC(C)C)C(=O)N[C@@H](CCCNC(=N)N)C(=O)N[C@@H](CCCCN)C(=O)N[C@@H](CCCNC(=N)N)C(=O)N[C@@H](CCCCN)C(=O)N[C@@H](CCCNC(=N)N)C(=O)N[C@@H](CO)C(=O)N[C@@H](CCCNC(=N)N)C(N)=O) | neither L-mIFN-γ 122-132 nor MuSL are active | neither L-mIFN-γ 122-132 nor MuSL are active | – | – | – | – | – | – | – | – | – | – | – | 50-60% | –
